{
  "source": "patent US20150315218A1",
  "about": "“SALTS OF PRODRUGS OF PIPERAZINE AND SUBSTITUTED PIPERIDINE ANTIVIRAL AGENTS” (Bristol-Myers Squibb Company, priority 2004, published 2015)",
  "key": {"[1]": {"assay": "Single-dose oral toxicokinetic study of prodrugs in rats", "format": "in vivo, rat", "conditions": "for half-life / AUC / Cmax: plasma; for half-life / Cmax / C24 h (μM): analyte = label; for half-life: read-out: T½ (converted); for AUC: read-out: AUC", "protocol": "A 1-day oral toxicokinetic study in rats was conducted using the prodrug Iab (monolysine salt). Iab was administered at dosages of 16, 72, and 267 mg/kg (free acid) by oral gavage to three male rats/group using water as the vehicle (solution formulation). The dosages of prodrug free acid correspond to IVa (parent) molar equivalent dosages of 13, 57, and 211 mg/kg, respectively. The endpoint evaluated was plasma toxicokinetics of Iab and IVa in the individual rats.\nA 1-day oral toxicokinetic study in rats was conducted by using the prodrug Ibb (monolysine salt). Ibb was administered at dosages of 19, 64, and 236 mg/kg (free acid) by oral gavage to three male rats/group using water as the vehicle (solution formulation).\nA 1-day oral toxicokinetic study in rats was conducted using the prodrug Icb (disodium salt). Icb was administered at dosages of 5, 25, and 200 mg/kg (free acid) by oral gavage to three male rats/group using water as the vehicle (solution formulation)."}, "[2]": {"assay": "Single-dose toxicokinetic and tolerability study of prodrugs in dogs", "format": "in vivo, dog", "protocol": "A multi-phase study was conducted to evaluate the tolerability of the prodrug, Iab (monolysine salt) at dosages of 24, 90, or 240 mg/kg (free acid, molar equivalent to 19, 71, or 190 mg/kg of parent IVa, respectively) and the toxicokinetics of lab and IVa (4). Iab was administered to two female dogs/group once daily either as an aqueous solution (24 or 90 mg/kg) or dry-filled capsules (24, 90 [once and twice daily] or 240 mg/kg). The endpoints were: clinical signs, body weight, food consumption, and plasma toxicokinetics of lab and IVa. In all cases, a 1-week washout period was used between doses for all phases of the study. […]\nOn day 1, Icb was administered to one dog/sex/group once daily in dry-filled capsules at the above dosages. A 1-week washout period was used between doses in the study. On day 8, Icb was administered to one dog/sex/group once daily as an aqueous solution at 25 mg/kg or twice daily in dry-filled capsules at 46 or 125 mg/kg BID."}, "[3]": {"assay": "IV and PO pharmacokinetic studies of prodrug salts (Iab, Ibb, Icb) in the rat, with historical parent data", "format": "in vivo, Sprague-Dawley rats", "conditions": "male, Sprague-Dawley", "protocol": "(§1) All blood samples (0.3 mL) were colleted in microtainers containing K2EDTA (Becton Dickinson, Franklin Lakes, N.J.) and placed on chipped ice. After centrifugation, plasma was separated and stored at −20° C. until analysis. The mono-lysine salt of Iab (Form 3, Lot 1) was used for the pharmacokinetic studies. The dosing solutions of Iab were prepared in either sterile water (for IV administration in dogs and monkeys) or distilled water (for all other dose administration).\nMale Sprague-Dawley rats (300-350 g, Hilltop Lab Animals, Inc., Scottsdale, Pa.) with cannulas implanted in the jugular vein were used. The rats were fasted overnight in the PO pharmacokinetic studies. Blood samples were collected from the jugular vein.\nIn the IV study, Iab was delivered at 1.4 mg/kg (free acid, or 1.1 mg/kg of IVa equivalent) as a bolus over 0.5 min (n=3).\nIn the PO study, Iab was administered at 7.9 mg/kg (free acid, or 6.3 mg/kg of IVa equivalent) by oral gavage (n=3). The concentration of the dosing solution was 4.0 mg/mL, and the dosing volume was 2 mL/kg.\nThe pharmacokinetic parameters of Iab and IVa were calculated by Non-Compartmental Analysis using the […]™ software program (version 4.0.2, InnaPhase Co., Philadelphia, Pa.). The Cmax and Tmax values were recorded directly from experimental observations. The AUC0-n and AUCtot values were calculated using the mixed log-linear trapezoidal summations. The total body clearance (Cl), mean residence time (MRT), and the steady state volume of distribution (Vss) were also calculated after intravenous administration. The absolute oral bioavailability (expressed as %) was estimated by taking the ratio of dose-normalized AUC values after oral doses to those after intravenous doses.\nas §1, with “Ibb” for “Iab”, “3)” for “3, Lot 1)”\n(§2) The Cmax and Tmax values were recorded directly from experimental observations. The AUC0-n and AUCtot values were calculated using the mixed log-linear trapezoidal summations. The total body clearance (Cl), mean residence time (MRT), and the steady state volume of distribution (Vss) were also calculated after intravenous administration. The absolute oral bioavailability (expressed as %) was estimated by taking the ratio of dose-normalized AUC values after oral doses to those after intravenous doses.\nIn the IV study, Icb was delivered at 1.4 mg/kg (free acid, or 1.1 mg/kg of IVe equivalent) as a bolus over 0.5 min (n=3).\nIn the PO study, Icb was administered at 6.9 mg/kg (free acid, or 5.6 mg/kg of IVe equivalent) by oral gavage (n=3).\nas §2"}},
  "note": "“Also recorded” adds a separate entry of the source. Where a name gives a salt, the structure may show the parent alone.",
  "data": [
    {"smiles": "COc1cnc(-n2cnc(C)n2)c2c1c(C(=O)C(=O)N1CCN(C(=O)c3ccccc3)CC1)cn2COP(=O)(O)O", "note": "[Icb, [3-[(4-benzoylpiperazin-1-yl)(oxo)acetyl]-4-methoxy-7-(3-methyl-1H-1,2,4-triazol-1-yl)-1H-pyrrolo[2,3-c]pyridin-1-yl]methyl dihydrogen phosphate, 2-amino-2-(hydroxymethyl)propane-1,3-diol salt (1:1)]", "values": [
      {"measurement": "prodrug concentrations in plasma", "setting": "[1]; male, CD, rat, in vivo, 200 mg/kg", "result": "0.02 to 0.04", "unit": "µM"},
      {"measurement": "prodrug in plasma", "setting": "[1]; rat, in vivo, 25 mg/kg", "result": "not detected"},
      {"measurement": "Emesis (footnote 4)", "setting": "[2]; both, dog, in vivo", "result": "^4Emesis observed within 2 hours of dosing with capsule remnant present"},
      {"measurement": "Emesis (footnote 5)", "setting": "[2]; both, dog, in vivo", "result": "^5Emesis observed within 2 hours of dosing with no capsule remnant"},
      {"measurement": "levels of prodrug detected in some plasma samples", "setting": "[2]; both, dog, in vivo", "result": "≤ 100", "unit": "nM"},
      {"measurement": "T1/2", "setting": "[3]; in vivo, iv, […]", "result": "5.04 ± 0.72", "unit": "min"}
    ]},
    {"smiles": "COc1cnc(OC)c2c1c(C(=O)C(=O)N1CCN(C(=O)c3ccccc3)CC1)cn2COP(=O)(O)O", "note": "[Iab, {3-[(4-benzoylpiperazin-1-yl)(oxo)acetyl]-4,7-dimethoxy-1H-pyrrolo[2,3-c]pyridin-1-yl}methyl dihydrogen phosphate, L-lysine salt (1:1)]", "values": [
      {"measurement": "half-life", "setting": "[1]; CD, rat, male rats, Iab 16 mg/kg PO", "result": 38.4, "unit": "min"},
      {"measurement": "half-life", "setting": "[1]; CD, rat, male rats, Iab 72 mg/kg PO", "result": 22.2, "unit": "min"},
      {"measurement": "AUC", "setting": "[1]; CD, rat, male rats, Iab 267 mg/kg PO, AUC from zero to time of last quantifiable sample", "result": 0.057, "unit": "µM·h"},
      {"measurement": "half-life", "setting": "[1]; CD, rat, male rats, Iab 267 mg/kg PO", "result": 2.7, "unit": "min"},
      {"measurement": "Cmax", "setting": "[1]; CD, rat, male rats, single oral dose Iab 16 mg/kg (13 mg/kg IVa molar equiv.), water", "result": 68, "unit": "nM"},
      {"measurement": "Cmax", "setting": "[1]; CD, rat, male rats, single oral dose Iab 72 mg/kg (57 IVa equiv.)", "result": 95, "unit": "nM"},
      {"measurement": "Cmax", "setting": "[1]; CD, rat, male rats, single oral dose Iab 267 mg/kg (211 IVa equiv.)", "result": 110, "unit": "nM"},
      {"measurement": "C24 h (μM)", "setting": "[1]; male rats, Iab 16 mg/kg PO", "result": "<LLQ^1"},
      {"measurement": "C24 h (μM)", "setting": "[1]; male rats, Iab 72 mg/kg PO", "result": "<LLQ"},
      {"measurement": "C24 h (μM)", "setting": "[1]; male rats, Iab 267 mg/kg PO", "result": "<LLQ"},
      {"measurement": "AUC", "setting": "[1]; male, CD, rat, po, 16 mg/kg", "result": 0.02, "unit": "µM·h"},
      {"measurement": "AUC", "setting": "[1]; male, CD, rat, po, 72 mg/kg", "result": 0.049, "unit": "µM·h"},
      {"measurement": "plasma AUC of the prodrug relative to that of the parent", "setting": "[1]; rats, single oral dose of Iab", "result": "≤ 0.03", "unit": "%"},
      {"measurement": "percentage of estimated total dose lost in vomit", "setting": "[2]; Dog #1201 (90 mg/kg Iab)", "result": "< 1", "unit": "%"},
      {"measurement": "percentage of estimated total dose lost in vomit", "setting": "[2]; Dog #2201 (240 mg/kg Iab)", "result": "≈ 90%"},
      {"measurement": "percentage of estimated total dose lost in vomit", "setting": "[2]; Dog #2202 (240 mg/kg Iab)", "result": "≈ 9%"},
      {"measurement": "clinical signs, body weight and food consumption", "setting": "[2]; dogs, oral prodrug", "result": "Other than emesis, there were no clinical signs observed, and there no effects on body weight and food consumption"},
      {"measurement": "emesis", "setting": "[2]; dogs, oral prodrug", "result": "Emesis was observed at about 30 minutes after dosing in both dogs given 90 mg/kg; also recorded: Emesis was observed in Dogs #1201, #2201, and #2202 about 1 hour after dosing"},
      {"measurement": "concentration at 1 h", "setting": "[2]; female, dog, plasma, oral, dogs, 1 hour post dose, Iab 90-240 mg/kg phase, read-out: prodrug detected in plasma", "result": "5 to 49", "unit": "nM"},
      {"measurement": "concentration at 2 h", "setting": "[2]; female, dog, plasma, oral, dogs, 2 hours post dose, Iab 90-240 mg/kg phase, read-out: prodrug detected in plasma", "result": "5 to 6", "unit": "nM"},
      {"measurement": "prodrug in the plasma samples", "setting": "[2]; initial phase, Iab 24 or 90 mg/kg", "result": "not detected"},
      {"measurement": "AUC", "setting": "[3]; plasma, after IV prodrug (~1 mg/kg parent equivalent), analyte = label, read-out: AUCtot (μM·hr), IV", "result": "3.3 ± 1", "unit": "µM·h"},
      {"measurement": "half-life", "setting": "[3]; plasma, after IV prodrug, analyte = label, read-out: t1/2 (hr), IV (converted)", "result": 0.16, "unit": "h"},
      {"measurement": "clearance", "setting": "[3]; plasma, prodrug after IV administration, read-out: CLtot (mL/min/kg), IV", "result": 14, "unit": "mL/min/kg"},
      {"measurement": "Vd", "setting": "[3]; plasma, prodrug after IV administration, read-out: Vdss (L/kg), IV", "result": 0.12, "unit": "L/kg"}
    ]}
  ]
}
